Assays:
Settings in all cases: treatment: drug + dasatinib (fixed dose, not stated); 5 days
[1] = tested on: SN12C; experiment: GI50 of drug in presence of dasatinib; higher = less potent
Method: (§1)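 Primary HTS combination arm: 8 RCC cell lines treated with 8 doses (up to 10 uM) of each library drug plus a fixed dose of dasatinib (dose not stated) for 5 days; viability read by CellTiter-Glo and normalised to DMSO. GI50 was fitted with XLfit, AUC is the area under the dose-response curve, and minimum viability is the lowest fraction of DMSO viability across doses.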

[2] = tested on: A498; experiment: as above
Method: as §1

[3] = tested on: 769-P; experiment: as above
Method: as §1

[4] = tested on: ACHN; experiment: as above
Method: as §1

[5] = tested on: UO-31; experiment: as above
Method: as §1

[6] = tested on: TK-10; experiment: as above
Method: as §1

[7] = tested on: 786-O; experiment: as above
Method: as §1

[8] = tested on: CAKI-1; experiment: as above
Method: as §1

[9] = tested on: SN12C; experiment: minimum viability across doses, drug + dasatinib, relative to DMSO (fraction); higher = less growth inhibition
Method: as §1

[10] = tested on: A498; experiment: as above
Method: as §1

[11] = tested on: 769-P; experiment: as above
Method: as §1

[12] = tested on: ACHN; experiment: as above
Method: as §1

[13] = tested on: UO-31; experiment: as above
Method: as §1

[14] = tested on: TK-10; experiment: as above
Method: as §1

[15] = tested on: 786-O; experiment: as above
Method: as §1

[16] = tested on: CAKI-1; experiment: as above
Method: as §1

[17] = tested on: SN12C; experiment: AUC of dose-response viability curve, drug + dasatinib, normalised to DMSO (arbitrary (AUC of normalised viability)); higher = less growth inhibition
Method: as §1

[18] = tested on: A498; experiment: as above
Method: as §1

[19] = tested on: 769-P; experiment: as above
Method: as §1

[20] = tested on: ACHN; experiment: as above
Method: as §1

[21] = tested on: UO-31; experiment: as above
Method: as §1

[22] = tested on: TK-10; experiment: as above
Method: as §1

[23] = tested on: 786-O; experiment: as above
Method: as §1

[24] = tested on: CAKI-1; experiment: as above
Method: as §1

| Compound | GI50 of drug [1] | GI50 of drug [2] | GI50 of drug [3] | GI50 of drug [4] | GI50 of drug [5] | GI50 of drug [6] | GI50 of drug [7] | GI50 of drug [8] | minimum viability across doses [9] | minimum viability across doses [10] | minimum viability across doses [11] | minimum viability across doses [12] | minimum viability across doses [13] | minimum viability across doses [14] | minimum viability across doses [15] | minimum viability across doses [16] | AUC of dose-response viability curve [17] | AUC of dose-response viability curve [18] | AUC of dose-response viability curve [19] | AUC of dose-response viability curve [20] | AUC of dose-response viability curve [21] | AUC of dose-response viability curve [22] | AUC of dose-response viability curve [23] | AUC of dose-response viability curve [24] |
| --- | --- | --- | --- | --- | --- | --- | --- | --- | --- | --- | --- | --- | --- | --- | --- | --- | --- | --- | --- | --- | --- | --- | --- | --- |
| CS(=O)(=O)CCNCc1ccc(-c2ccc3ncnc(Nc4ccc(OCc5cccc(F)c5)c(Cl)c4)c3c2)o1.Cc1ccc(S(=O)(=O)O)cc1.Cc1ccc(S(=O)(=O)O)cc1 [Lapatinib Ditosylate (Tykerb)] + Cc1nc(Nc2ncc(C(=O)Nc3c(C)cccc3Cl)s2)cc(N2CCN(CCO)CC2)n1 [dasatinib] | > 10 µM | > 10 µM | 0.401 µM | 0.176 µM | 5.85 µM | 3.34 µM | 6.69 µM | 3.85 µM | 0.606 | 0.798 | 0.18 | 0.352 | 0.35 | 0.3 | 0.426 | 0.211 | 2.34 | 3.08 | 1.77 | 1.7 | 3.08 | 2.34 | 2.41 | 2.03 |
| Nc1cccc2c1CN(C1CCC(=O)NC1=O)C2=O (stereo not drawn) [Lenalidomide (Revlimid)] + Cc1nc(Nc2ncc(C(=O)Nc3c(C)cccc3Cl)s2)cc(N2CCN(CCO)CC2)n1 [dasatinib] | > 10 µM | > 10 µM | > 10 µM | > 10 µM | > 10 µM | > 10 µM | < 0.003 µM | > 10 µM | 0.706 | 0.989 | 0.497 | 0.503 | 1.19 | 0.666 | 0.488 | 0.656 | 2.55 | 3.71 | 2.51 | 2.05 | 4.59 | 2.56 | 2.61 | 2.41 |
| Cc1ccc(F)c(NC(=O)Nc2ccc(-c3cccc4[nH]nc(N)c34)cc2)c1 [Linifanib (ABT-869)] + Cc1nc(Nc2ncc(C(=O)Nc3c(C)cccc3Cl)s2)cc(N2CCN(CCO)CC2)n1 [dasatinib] | 1.87 µM | 9.11 µM | 4 µM | 3.71 µM | > 10 µM | 3.45 µM | > 10 µM | 7.59 µM | 0.312 | 0.279 | 0.27 | 0.244 | 0.729 | 0.231 | 0.557 | 0.213 | 2.25 | 3.28 | 2.33 | 2.4 | 3.5 | 2.58 | 2.63 | 2.21 |
| C[C@]1(O)C[C@@H](c2nc(-c3ccc4ccc(-c5ccccc5)nc4c3)c3c(N)nccn32)C1 [Linsitinib (OSI-906)] + Cc1nc(Nc2ncc(C(=O)Nc3c(C)cccc3Cl)s2)cc(N2CCN(CCO)CC2)n1 [dasatinib] | > 10 µM | > 10 µM | > 10 µM | 2.97 µM | > 10 µM | > 10 µM | > 10 µM | 2.6 µM | 0.592 | 0.824 | 0.527 | 0.361 | 0.647 | 0.55 | 0.689 | 0.259 | 2.28 | 3.31 | 2.3 | 1.89 | 3.19 | 2.43 | 2.64 | 2.2 |
| Cn1cnc(-c2cc3nccc(Oc4ccc(NC(=S)NC(=O)Cc5ccccc5)cc4F)c3s2)c1 [MGCD-265] + Cc1nc(Nc2ncc(C(=O)Nc3c(C)cccc3Cl)s2)cc(N2CCN(CCO)CC2)n1 [dasatinib] | > 10 µM | > 10 µM | > 10 µM | 2.83 µM | 5.72 µM | > 10 µM | > 10 µM | 3.63 µM | 0.515 | 0.676 | 0.557 | 0.44 | 0.107 | 0.727 | 0.646 | 0.256 | 2.38 | 3.49 | 2.39 | 2.13 | 3.44 | 2.82 | 2.64 | 2.21 |
| CN(C[C@@H]1COCCO1)S(=O)(=O)Nc1ccc2ccc3ncc(-c4cnn(C)c4)cc3c(=O)c2c1 [MK-2461] + Cc1nc(Nc2ncc(C(=O)Nc3c(C)cccc3Cl)s2)cc(N2CCN(CCO)CC2)n1 [dasatinib] | > 10 µM | > 10 µM | 6.28 µM | 0.0109 µM | 5.33 µM | 2.91 µM | > 10 µM | 0.45 µM | 0.179 | 0.919 | 0.362 | 0.121 | 0.227 | 0.287 | 0.638 | 0.0412 | 2.14 | 4.48 | 2.49 | 1.23 | 5.47 | 2.19 | 4.08 | 1.71 |
| O=C(O)[C@]1(Cc2cccc(Nc3nccs3)n2)CC[C@@H](Oc2cccc(Cl)c2F)CC1 [MK-5108 (VX-689)] + Cc1nc(Nc2ncc(C(=O)Nc3c(C)cccc3Cl)s2)cc(N2CCN(CCO)CC2)n1 [dasatinib] | 0.944 µM | 1.99 µM | 1.36 µM | 0.0401 µM | 4.08 µM | 1.48 µM | 0.105 µM | 0.355 µM | 0.174 | 0.339 | 0.202 | 0.227 | 0.37 | 0.372 | 0.00534 | 0.216 | 1.96 | 2.89 | 2.18 | 1.51 | 3.91 | 2.14 | 1.07 | 1.86 |

Reference: the supplement of paper PMC8149375
